# Reference: patent US10238670B2, “9-aminomethyl minocycline compounds and methods of use thereof in urinary tract infection (UTI) treatment” (Paratek Pharmaceuticals, Inc., priority 2016, dated 2019)
# Experiment: Phase 1b study in female adults with cystitis, urine PK
# Format: in vivo, human
# Details: urine
# Description: Urine was collected, the volume recorded, and analyzed for Compound 1 concentration at the following times: • Day 1 to 2: pooled total urine 0 to 4, 4 to 8, 8 to 12, and 12-24 hours after the t=0 h dose; Collection of the 12 to 24 h sample should be completed prior to the t=24 h dose on Day 2; • Day 5 to 6: pooled total urine 0 to 4, 4 to 8, 8 to 12, and 12-24 hours after the t=96 h dose;
# Urine was pooled during the intervals above. At the end of each interval, the time and total volume were recorded.
# Compound 1 urine concentration data was used to determine the amount excreted in a dosing interval, the urinary excretion rate, and, in conjunction with the plasma concentration data, to estimate the renal clearance (CLr) of Compound 1.
# Urine was collected and the volume recorded at the following times: • Day 1 to 2: pooled total urine 0 to 4, 4 to 8, 8 to 12, and 12-24 hours after the t=0 h dose; • Day 5 to 6: pooled total urine 0 to 4, 4 to 8, 8 to 12, and 12-24 hours after the t=96 h dose;
# At the end of each collection time period the pooled urine was frozen at −20° C. or colder and the total volume of urine collected for the time period was recorded. The samples were kept frozen at −20° C. or colder pending shipment to the bioanalytical laboratory.
# The urine sample volume, its Compound 1 concentration, the amount of Compound 1 excreted in the urine (product of volume and concentration) over a dosing interval, the urinary excretion rates and renal clearance (CLr) of Compound 1 following the initial Day 1 and final Day 5 doses were summarized by the treatment groups.
smiles,measurement,setting,value
"CN(C)c1cc(CNCC(C)(C)C)c(O)c2c1C[C@H]1C[C@H]3[C@H](N(C)C)C(O)=C(C(N)=O)C(=O)[C@@]3(O)C(O)=C1C2=O [Compound 1, 9-[(2,2-dimethyl-propylamino)-methyl]-minocycline]","Ae 12-24 hrs, Mean","Day 1, IV_PO300",14.00 mg
same,"Ae 12-24 hrs, Median","Day 1, IV_PO300",12.32 mg
same,"Fe 0-24 hrs, Geo. Mean","Day 1, IV_PO300",18.49%
same,"Fe 0-24 hrs, Mean","Day 1, IV_PO300",20.35%
same,"Fe 0-24 hrs, Median","Day 1, IV_PO300",20.70%
same,"Ae 0-4 hrs, Geo. Mean","Day 1, PO300",5.90 mg
same,"Ae 0-4 hrs, Mean","Day 1, PO300",6.41 mg
same,"Ae 0-4 hrs, Median","Day 1, PO300",6.58 mg
same,"Ae 0-24 hrs, Geo. Mean","Day 1, PO300",36.94 mg
same,"Ae 0-24 hrs, Median","Day 1, PO300",39.07 mg
same,"Ae 4-8 hrs, Geo. Mean","Day 1, PO300",6.42 mg
same,"Ae 4-8 hrs, Mean","Day 1, PO300",7.60 mg
same,"Ae 4-8 hrs, Median","Day 1, PO300",6.28 mg
same,"Ae 8-12 hrs, Geo. Mean","Day 1, PO300",7.22 mg
same,"Ae 8-12 hrs, Mean","Day 1, PO300",9.17 mg
same,"Ae 8-12 hrs, Median","Day 1, PO300",6.86 mg
same,"Ae 12-24 hrs, Geo. Mean","Day 1, PO300",14.19 mg
same,"Ae 12-24 hrs, Mean","Day 1, PO300",16.82 mg
same,"Ae 12-24 hrs, Median","Day 1, PO300",16.30 mg
same,"Fe 0-24 hrs, Geo. Mean","Day 1, PO300",6.16%
same,"Fe 0-24 hrs, Mean","Day 1, PO300",6.54%
same,"Fe 0-24 hrs, Median","Day 1, PO300",6.51%
same,"Ae 0-4 hrs, Geo. Mean","Day 1, PO450",3.96 mg
same,"Ae 0-4 hrs, Mean","Day 1, PO450",7.27 mg
same,"Ae 0-4 hrs, Median","Day 1, PO450",5.05 mg
same,"Ae 0-24 hrs, Geo. Mean","Day 1, PO450",34.07 mg
same,"Ae 0-24 hrs, Median","Day 1, PO450",37.30 mg
same,"Ae 4-8 hrs, Geo. Mean","Day 1, PO450",6.00 mg
same,"Ae 4-8 hrs, Mean","Day 1, PO450",7.11 mg
same,"Ae 4-8 hrs, Median","Day 1, PO450",6.16 mg
same,"Ae 8-12 hrs, Geo. Mean","Day 1, PO450",4.75 mg
same,"Ae 8-12 hrs, Mean","Day 1, PO450",5.36 mg
same,"Ae 8-12 hrs, Median","Day 1, PO450",5.27 mg
same,"Ae 12-24 hrs, Geo. Mean","Day 1, PO450",14.57 mg
same,"Ae 12-24 hrs, Mean","Day 1, PO450",16.92 mg
same,"Ae 12-24 hrs, Median","Day 1, PO450",15.98 mg
same,"Fe 0-24 hrs, Geo. Mean","Day 1, PO450",3.79%
same,"Fe 0-24 hrs, Mean","Day 1, PO450",3.99%
same,"Fe 0-24 hrs, Median","Day 1, PO450",4.14%
same,"Ae 0-4 hrs, Geo. Mean","Day 5, IV_PO300",3.89 mg
same,"Ae 0-4 hrs, Mean","Day 5, IV_PO300",7.74 mg
same,"Ae 0-4 hrs, Median","Day 5, IV_PO300",4.99 mg
same,"Ae 0-24 hrs, Geo. Mean","Day 5, IV_PO300",21.72 mg
same,"Ae 0-24 hrs, Median","Day 5, IV_PO300",31.29 mg
same,"Ae 4-8 hrs, Geo. Mean","Day 5, IV_PO300",5.22 mg
same,"Ae 4-8 hrs, Mean","Day 5, IV_PO300",8.38 mg
same,"Ae 4-8 hrs, Median","Day 5, IV_PO300",7.13 mg
same,"Ae 8-12 hrs, Geo. Mean","Day 5, IV_PO300",3.94 mg
same,"Ae 8-12 hrs, Mean","Day 5, IV_PO300",6.28 mg
same,"Ae 8-12 hrs, Median","Day 5, IV_PO300",6.47 mg
same,"Ae 12-24 hrs, Geo. Mean","Day 5, IV_PO300",7.31 mg
same,"Ae 12-24 hrs, Mean","Day 5, IV_PO300",10.71 mg
same,"Ae 12-24 hrs, Median","Day 5, IV_PO300",11.25 mg
same,"Fe 0-24 hrs, Geo. Mean","Day 5, IV_PO300",7.24%
same,"Fe 0-24 hrs, Mean","Day 5, IV_PO300",10.76%
same,"Fe 0-24 hrs, Median","Day 5, IV_PO300",10.43%
same,"Ae 0-4 hrs, Geo. Mean","Day 5, PO300",7.20 mg
same,"Ae 0-4 hrs, Mean","Day 5, PO300",10.02 mg
same,"Ae 0-4 hrs, Median","Day 5, PO300",9.35 mg
same,"Ae 0-24 hrs, Geo. Mean","Day 5, PO300",31.46 mg
same,"Ae 0-24 hrs, Median","Day 5, PO300",34.96 mg
same,"Ae 4-8 hrs, Geo. Mean","Day 5, PO300",9.17 mg
same,"Ae 4-8 hrs, Mean","Day 5, PO300",10.54 mg
same,"Ae 4-8 hrs, Median","Day 5, PO300",8.05 mg
same,"Ae 8-12 hrs, Geo. Mean","Day 5, PO300",5.02 mg
same,"Ae 8-12 hrs, Mean","Day 5, PO300",6.74 mg
same,"Ae 8-12 hrs, Median","Day 5, PO300",7.29 mg
same,"Ae 12-24 hrs, Geo. Mean","Day 5, PO300",10.71 mg
same,"Ae 12-24 hrs, Mean","Day 5, PO300",11.95 mg
same,"Ae 12-24 hrs, Median","Day 5, PO300",11.38 mg
same,"Fe 0-24 hrs, Geo. Mean","Day 5, PO300",10.49%
same,"Fe 0-24 hrs, Mean","Day 5, PO300",12.74%
same,"Fe 0-24 hrs, Median","Day 5, PO300",11.65%
same,"Ae 0-4 hrs, Geo. Mean","Day 5, PO450",9.50 mg
same,"Ae 0-4 hrs, Mean","Day 5, PO450",12.07 mg
same,"Ae 0-4 hrs, Median","Day 5, PO450",11.76 mg
same,"Ae 0-24 hrs, Geo. Mean","Day 5, PO450",43.60 mg
same,"Ae 0-24 hrs, Median","Day 5, PO450",50.26 mg
same,"Ae 4-8 hrs, Geo. Mean","Day 5, PO450",11.02 mg
same,"Ae 4-8 hrs, Mean","Day 5, PO450",19.74 mg
same,"Ae 4-8 hrs, Median","Day 5, PO450",10.30 mg
same,"Ae 8-12 hrs, Geo. Mean","Day 5, PO450",6.01 mg
same,"Ae 8-12 hrs, Mean","Day 5, PO450",7.54 mg
same,"Ae 8-12 hrs, Median","Day 5, PO450",5.62 mg
same,"Ae 12-24 hrs, Geo. Mean","Day 5, PO450",15.26 mg
same,"Ae 12-24 hrs, Mean","Day 5, PO450",18.59 mg
same,"Ae 12-24 hrs, Median","Day 5, PO450",20.23 mg
same,"Fe 0-24 hrs, Geo. Mean","Day 5, PO450",9.69%
same,"Fe 0-24 hrs, Mean","Day 5, PO450",12.19%
same,"Fe 0-24 hrs, Median","Day 5, PO450",11.17%
